Key:
Type in all cases: cell-based, human
A375 cells = settings: for metabolic heterogeneity of lipid synthesis activity (Cv of single-cell d-PA metabolites): compared to untreated control group; for d-AA metabolites (protein synthesis activity): compared to untreated group
Description: Deuterated branch-chained amino acids and deuterated palmitic acid were supplemented to the cell culture media for 24 hours in order to probe the flux of protein and lipid synthesis. There can be several considerations for choosing these two types of probes. First, protein and lipids can be the major components of cell dry mass and their metabolism can be tightly regulated. Second, Raman spectra of the metabolites of these two deuterated probes in cells can be shifted to the cell silent region (e.g., 2000 — 2300 cm-1), which facilitated the detection with high sensitivity in a background-free manner. (See, e.g., FIG. 8). Third, compared to non-branch-chained counterparts, branch-chained amino acids were chosen for their narrower Raman spectra in order to have better spectral differences from that of deuterated palmitic acid. (See, e.g., Reference 23; and FIGS. 9). With the high-throughput instrumentation efforts described above, Raman spectra of these two types of probes can be acquired as quickly as 0.5 s for the entire cell with a satisfactory signal to noise ratio. (See, e.g., FIG. 1B).
Previously, the single-cell metabolic measurement has been challenging. Previously-used methods, such as mass spectrometry, can be difficult to reveal single-cell level heterogeneity. (See, e.g., Reference 24). […] However, due to the complex nature of the Raman spectra, it can be difficult to assign each Raman peak in the fingerprint region to a specific chemical compound. (See, e.g., Reference 25). In addition, when dimension reduction approaches such as PCA can be applied, which can be a common practice for data analysis, the physical meanings of the dimension reduced data can be further lost. On the other hand, since the metabolic probes used have distinctive spectra, it can be straightforward to decompose the spectra in order to obtain the concentration information of each individual probe. Here the exemplary MCR-ALS method, (see, e.g., References 26-28), was used to decompose the composite spectra into the pure spectra of the two metabolic probes, and concentration profiles could thereby be obtained.
To validate the ability to reveal metabolic activity, the exemplary MAP was applied to cultured cells treated with drugs that inhibit known metabolism. Five drugs were used as the reference: cycloheximide and blasticidin, both inhibit protein translation; Triacsin C can be an inhibitor of long fatty acyl CoA synthetase; etoposide and cisplatin can be DNA replication inhibitors. MAP probes and individual drugs were added to the seeded A375 cells and allowed to incubate for 24 hours, after which the cells were fixed and Raman spectra were taken from each individual of the fixed single cells. At least 3 batches of each drug were prepared to ensure model robustness and reproducibility. MCR-ALS on the Raman spectra taken with MAP were applied, from which the concentration profiles of d-AA metabolites and d-PA metabolites in every single cell were calculated. (See, e.g., FIG. 2A).
Since MAP measures the metabolic activity in single cells, its potential in quantitatively characterizing single-cell metabolic heterogeneity was determined. The coefficients of variation (“Cv”) of the single-cell d-PA metabolites and d-AA metabolites distribution were calculated from the metabolic inhibitor-treated cells. (See, e.g., Reference 32). The Cv value can be a normalized measure of the dispersion of the single-cell metabolic activity distribution and thus it can be used as a parameter to quantify the metabolic heterogeneity. […] (See, e.g., FIG. 2C). […] (See, e.g., FIG. 2D).
For MAP samples, cells were first seeded in a 24-well plate at 50% confluency with cell culture media and allowed to adhere overnight. Then the culture media was replaced with MAP culture media (see Table 1 below) and cells were further cultured in MAP media for 24 hours. […]

HeLa cells = assay: Endocytic pathway profiling by Rdots of various sizes and colors, whole-cell Raman
Description: Upon exposure to mammalian cells, PS beads have been reported to enter cells through endocytosis, subsequently reaching the endosomal components. (See, e.g., Reference A40). Although some of the endocytic pathways have been well established, their exact biological roles are still under investigation. (See, e.g., References A41, A42). […] (See, e.g., Reference A43). Motivated by the independent size and color tunability of Rdots, cellular endocytosis pathways were profiled by incubating cells with Rdots of different sizes and colors. Rdots of 40 nm (Rdot2207), 70 nm (Rdot2118), and 120 nm (Rdot2092) in diameter were incubated with HeLa cells, and their Raman peaks are designed to be mutually resolvable.
For whole-cell Raman acquisition, the corresponding Raman intensity is proportional to the number of internalized Rdots, since the Raman intensity of Rdots remains stable after exposed to cellular microenvironments. We therefore quantified the peak intensity to profile the differential mechanism of Rdots internalization. To this end, cells were first pre-treated with one of three inhibitors, chlorpromazine (CPZ), nystatin, and cytochalasin D (Cyto D). CPZ is a cationic amphiphilic drug used to block clathrin-mediated endocytosis. (See, e.g., Reference A44). Nystatin can decompose cholesterol and inhibit caveolae-mediated endocytosis. (See, e.g., Reference A45). Cyto D inhibits the polymerization of actin filaments, which is required for receptor-mediated endocytosis in mammalian cells. (See, e.g., Reference A46). Additionally, cells were incubated at 4° C. to inhibit energy-dependent endocytosis. Then endocytosis was examined by the quantification of internalized Rdots at the single-cell level. A distinctive response of Rdots internalization was detected when treated with various inhibitors (FIGS. 16E-G), and the radar plot was presented to highlight the fold change after inhibition (FIG. 16H). […] (See, e.g., Reference A47). […] (See, e.g., References A48, A49).
FIGS. 16A-16M show exemplary illustration of an exemplary endocytic profiling assay by multi-color Rdots. […] The peak position of each Rdots was indicated by the arrow. Excitation: 532 nm (400 mW), acquisition time: 1 s. FIGS. 16B-16D show exemplary SRS images of cellular distribution for three endocytic Rdots, (B) 40 nm (C) 70 nm (D) 120 nm, scale bar: 10 µm. […] Excitation: 532 nm (400 mW), acquisition time: 1 s. FIGS. 16J-L show exemplary histogram showing the Raman intensity distribution of three endocytic Rdots uptake by HeLa, SKBR3, and COS-7 cells, FIG. 16J - 40 nm, FIG. 16K - 70 nm, and FIG. 16L - 120 nm.

SKBR3 cells = tested on: SKBR3 cells
Description: Metabolic probes including ^13C-EdU, 17-ODYA, and ^13C-AA were first supplemented to cell culture media for 60 hours to report various metabolic activities. For endocytic profiling, cells were subsequently incubated with three Rdots for 6 hours. Then, seven functionalized Rdots cocktail was pooled to stain cell surface proteins simultaneously. Prior to the spectral acquisition, AltQ2 probe was added to live cells. Single-cell Raman spectra of SKBR3 cells were acquired with 1 second acquisition time (see FIG. 17C). To decipher the contribution of individual Raman probes, the amide region (1500 cm^-1-1700 cm-^1) and cell-silent region (2000 cm^-1 - 2300 cm-^1) were linearly decomposed by using the reference spectral profiles of each probe (see FIG. 17D) (See, e.g., References A54-A56). The unmixing procedure was applied on single-cell Raman spectra (see FIG. 17E). […] (See, e.g., References A25, A26).
Cell-based profiling techniques are increasingly being used in drug discovery to monitor cell response upon drug treatment. (See, e.g., Reference A57). Optical techniques have unique advantages by allowing non-invasive, fast, and cost-effective readouts of individual living cells. (See, e.g., Reference A58). However, most high-content profiling assays have been primarily focusing on partial aspects of biological phenotypes. (See, e.g., Reference A59). Integration of different phenotypes will facilitate a more systematic understanding of the mechanism of drug candidates. (See, e.g., Reference A60). […] Trastuzumab is a HER2-targeted monoclonal antibody developed for clinical use in breast cancer patients. (See, e.g., Reference A61). Hydrogen peroxide (H2O2) is well known as a major member of reactive oxygen species (ROS). (See, e.g., Reference A62). Cycloheximide (CHX) exerts its action by inhibiting protein synthesis. (See, e.g., Reference A63). Cyto D causes the disruption of actin filaments and inhibition of actin polymerization. (See, e.g., Reference A64). Cisplatin is an inhibitor of DNA synthesis and cell growth. (See, e.g., Reference A65). After labeling with 14 Raman probes, single-cell Raman spectra of SKBR3 cells under treatment of five chemotherapy reagents, as well as untreated cells, were acquired through the automated whole-cell Raman micro-spectroscopy (see FIG. 18B).
SKBR3 cells were seeded onto 18 mm round quartz coverslips (Electron Microscopy Sciences, 103302-258) and then maintained in a culture environment for 48 hours to reach 90% confluence. Then the culture medium was replaced with ^13C-AA DMEM containing 200 µM 17-ODYA and 50 nM ^13C-EdU for 60 hours. For the drug testing samples, cells were subject to the drug treatment simultaneously (see Table 5 for specific drug concentration). Followed by three rounds of gentle washing of DPBS buffer, cells were subsequently incubated with three-colored endocytic Rdots at 1 nM in serum-free DMEM medium. 6 hours later, cell surface markers were stained with seven-colored Rdots at a concentration of 10 nM for 1 hour on ice. After that, cells were washed extensively with DPBS buffer with 5 mM MgCl2 and 1% BSA. Then cells were rinsed with DPBS buffer with 5 mM MgCl2 and 40 µM AltQ2 before mounting onto the microscope for Raman measurement. Spectral unmixing was performed through the Least Square Method (LSM).

[1] = drug 60 hours, normalized to control

Structure (SMILES): N.N.[Cl][Pt][Cl] [cisplatin]
- metabolic heterogeneity of lipid synthesis activity (Cv of single-cell d-PA metabolites) (A375 cells; 24 hours drug): significantly decreased lipid synthesis heterogeneity

Structure (SMILES): CCC/C=C/C/C=C/C=C/C=N/NN=O [triacsin C, Triacsin C]
- metabolic heterogeneity of protein synthesis activity (Cv of single-cell d-AA metabolites) (A375 cells; 24 hours drug, compared to control group): unaltered Cv value
- metabolic heterogeneity of lipid synthesis activity (Cv of single-cell d-PA metabolites) (A375 cells; 24 hours drug): did not change the metabolic heterogeneity
- d-PA metabolites (lipid synthesis activity) (A375 cells; drug plus MAP probes 24 hours, compared to untreated cells): significant loss
- d-AA metabolites (protein synthesis activity) (A375 cells; drug plus MAP probes 24 hours): decrease in protein synthesis activity

Structure (SMILES): C[C@@H]1[C@H](O)[C@@H](C)/C=C/C=C/CC/C=C/C=C/C=C/C=C/C(O[C@H]2O[C@H](C)[C@@H](O)[C@H](N)[C@@H]2O)CC2O[C@](O)(CC(O)C(O)CCC(O)CC(O)CC(O)CC(=O)O[C@H]1C)CC(O)C2C(=O)O (stereo partly drawn) [nystatin]
- internalization of 120 nm Rdots after inhibitor pre-treatment (HeLa cells; Rdot2092 (120 nm)): inhibited
- internalization of 70 nm Rdots after inhibitor pre-treatment (HeLa cells; Rdot2118 (70 nm)): inhibited
- internalization of 40 nm Rdots after inhibitor pre-treatment (HeLa cells; Rdot2207 (40 nm)): unaltered or even slightly higher
- Rdots uptake (40 nm, 70 nm and 120 nm Rdots) after inhibitor pre-treatment (HeLa cells; single-cell Raman intensity of internalized Rdots): decreased as size increases

Structure (SMILES): OO [H2O2, Hydrogen peroxide]
- cellular internalization of Rdots of 70 nm (SKBR3 cells; drug 60 hours): promoted
- cellular internalization of Rdots of 120 nm (SKBR3 cells; drug 60 hours): promoted
- fatty acid turnover phenotype (17-ODYA probe) (SKBR3 cells; drug 60 hours): retarding their turnover rate
- internalization of AltQ2 (SKBR3 cells; drug 60 hours): increased internalization

Structure (SMILES): CN(CC[C@H](N)CC(=O)N[C@H]1C=C[C@H](n2ccc(N)nc2=O)O[C@@H]1C(=O)O)C(=N)N [blasticidin]
- metabolic heterogeneity of lipid synthesis activity (Cv of single-cell d-PA metabolites) (A375 cells; 24 hours drug): did not alter the lipid synthesis activity distribution
- d-AA metabolites (protein synthesis activity) (A375 cells; drug plus MAP probes 24 hours): significant decrease

Structure (SMILES): C[C@@H]1C[C@@H]([C@H](O)CC2CC(=O)NC(=O)C2)C(=O)[C@@H](C)C1 [cycloheximide]
- internalization of AltQ2 (SKBR3 cells; drug 60 hours): increased internalization
- DNA synthesis (13C-EdU probe) (SKBR3 cells; [1]): interfere with the process other than protein synthesis such as DNA synthesis
- metabolic heterogeneity of lipid synthesis activity (Cv of single-cell d-PA metabolites) (A375 cells; 24 hours drug): did not alter the lipid synthesis activity distribution
- d-AA metabolites (protein synthesis activity) (A375 cells; drug plus MAP probes 24 hours): significant decrease

Structure (SMILES): COc1cc([C@@H]2c3cc4c(cc3[C@@H](O[C@@H]3O[C@@H]5CO[C@@H](C)O[C@H]5[C@H](O)[C@H]3O)[C@H]3COC(=O)[C@H]23)OCO4)cc(OC)c1O [etoposide]
- metabolic heterogeneity of lipid synthesis activity (Cv of single-cell d-PA metabolites) (A375 cells; 24 hours drug): significantly decreased lipid synthesis heterogeneity

Structure (SMILES): C=C1[C@@H](C)[C@H]2[C@H](Cc3ccccc3)NC(=O)[C@]23[C@H](OC(C)=O)/C=C/[C@@](C)(O)C(=O)[C@@H](C)C/C=C/[C@H]3[C@@H]1O [Cyto D, cytochalasin D]
- CD44 surface expression (Rdot2079-CD44) (SKBR3 cells; drug 60 hours): suppresses CD44 surface expression
- internalization of AltQ2 (SKBR3 cells; drug 60 hours): increased internalization
- DNA synthesis (13C-EdU probe) (SKBR3 cells; [1]): inhibits
- protein synthesis (13C-AA probe) (SKBR3 cells; [1]): inhibits
- cellular internalization of Rdots (SKBR3 cells; long-term drug treatment): promote cellular internalization of Rdots
- cellular uptake of Rdots, incubation with inhibitor for 60 hours (HeLa cells; 60 hours): markedly promoted
- Rdots internalization, short-term inhibitor incubation (HeLa cells; short-term incubation (6 hours per FIG. 16 legend)): suppressed

— patent publication US20230341376A1, “SYSTEM, METHOD, AND COMPUTER-ACCESSIBLE MEDIUM FOR PHENOTYPING OF SINGLE CELLS WITH MULTIPLEXED VIBRATIONAL PROBES” (The Trustees of Columbia University in the City of New York, priority 2020, published 2023)
